Test results as given in the supplement of paper PMC10307832.

Tests used:
Assay in all cases: relative viability (nuclei count vs DMSO), 5 days (fraction); higher = more cells survive
ABC-1 = tested on: ABC-1
How it was run: (§1)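 Each reported value is a median over duplicate plates. It expresses relative viability: treated-well nuclei count divided by vehicle-well nuclei count. Lung cancer cell lines in 1536-well plates were dosed by pin tool a day after seeding, alone with one drug or with a fixed anchor-drug dose plus five library-drug doses (not always all listed) in √10 steps, and nuclei were counted after 5 days.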

BEN = tested on: BEN
How it was run: as §1

EKVX = tested on: EKVX
How it was run: as §1

EPLC-272H = tested on: EPLC-272H
How it was run: as §1

HCC-827 = tested on: HCC-827
How it was run: as §1

HOP-62 = tested on: HOP-62
How it was run: as §1

LU99A = tested on: LU99A
How it was run: as §1

LXF-289 = tested on: LXF-289
How it was run: as §1

NCI-H1563 = tested on: NCI-H1563
How it was run: as §1

NCI-H1666 = tested on: NCI-H1666
How it was run: as §1

NCI-H1975 = tested on: NCI-H1975
How it was run: as §1

NCI-H2170 = tested on: NCI-H2170
How it was run: as §1

NCI-H23 = tested on: NCI-H23
How it was run: as §1

NCI-H2405 = tested on: NCI-H2405
How it was run: as §1

NCI-H3122 = tested on: NCI-H3122
How it was run: as §1

NCI-H322M = tested on: NCI-H322M
How it was run: as §1

NCI-H358 = tested on: NCI-H358
How it was run: as §1

NCI-H520 = tested on: NCI-H520
How it was run: as §1

NCI-H727 = tested on: NCI-H727
How it was run: as §1

NCI-H838 = tested on: NCI-H838
How it was run: as §1

SK-MES-1 = tested on: SK-MES-1
How it was run: as §1

UMC-11 = tested on: UMC-11
How it was run: as §1

## COCC1(CO)C(=O)C2CCN1CC2 (configuration not stated) [PRIMA-1MET] + Cc1nc(Nc2ncc(C(=O)Nc3c(C)cccc3Cl)s2)cc(N2CCN(CCO)CC2)n1 [Dasatinib] (partner 0.075 µM)
ABC-1; first compound 0.2 µM
  relative viability: 0.705
ABC-1; first compound 0.6325 µM
  relative viability: 0.539
ABC-1; first compound 2 µM
  relative viability: 0.58
ABC-1; first compound 6.325 µM
  relative viability: 0.451
ABC-1; first compound 20 µM
  relative viability: 0.279
BEN; first compound 0.2 µM
  relative viability: 0.306
BEN; first compound 0.6325 µM
  relative viability: 0.279
BEN; first compound 6.325 µM
  relative viability: 0.271
BEN; first compound 20 µM
  relative viability: 0.339
EKVX; first compound 0.2 µM
  relative viability: 0.469
EKVX; first compound 0.6325 µM
  relative viability: 0.482
EKVX; first compound 2 µM
  relative viability: 0.468
EKVX; first compound 6.325 µM
  relative viability: 0.518
EKVX; first compound 20 µM
  relative viability: 0.564
EPLC-272H; first compound 2 µM
  relative viability: 0.349
EPLC-272H; first compound 6.325 µM
  relative viability: 0.347
EPLC-272H; first compound 20 µM
  relative viability: 0.0979
HCC-827; first compound 0.2 µM
  relative viability: 0.417
HCC-827; first compound 0.6325 µM
  relative viability: 0.337
HCC-827; first compound 2 µM
  relative viability: 0.427
HCC-827; first compound 6.325 µM
  relative viability: 0.332
HCC-827; first compound 20 µM
  relative viability: 0.315
HOP-62; first compound 0.2 µM
  relative viability: 0.637
HOP-62; first compound 0.6325 µM
  relative viability: 0.7
HOP-62; first compound 2 µM
  relative viability: 0.628
HOP-62; first compound 6.325 µM
  relative viability: 0.658
HOP-62; first compound 20 µM
  relative viability: 0.582
LU99A; first compound 0.2 µM
  relative viability: 0.612
LU99A; first compound 0.6325 µM
  relative viability: 0.513
LU99A; first compound 2 µM
  relative viability: 0.586
LU99A; first compound 6.325 µM
  relative viability: 0.671
LU99A; first compound 20 µM
  relative viability: 0.0333
LXF-289; first compound 0.2 µM
  relative viability: 0.277
LXF-289; first compound 0.6325 µM
  relative viability: 0.179
LXF-289; first compound 2 µM
  relative viability: 0.199
LXF-289; first compound 6.325 µM
  relative viability: 0.232
LXF-289; first compound 20 µM
  relative viability: 0.173
NCI-H1563; first compound 0.2 µM
  relative viability: 0.502
NCI-H1563; first compound 0.6325 µM
  relative viability: 0.426
NCI-H1563; first compound 6.325 µM
  relative viability: 0.548
NCI-H1563; first compound 20 µM
  relative viability: 0.422
NCI-H1666; first compound 0.2 µM
  relative viability: 0.801
NCI-H1666; first compound 0.6325 µM
  relative viability: 0.79
NCI-H1666; first compound 2 µM
  relative viability: 0.807
NCI-H1666; first compound 6.325 µM
  relative viability: 0.846
NCI-H1666; first compound 20 µM
  relative viability: 0.639
NCI-H1975; first compound 0.2 µM
  relative viability: 0.359
NCI-H1975; first compound 0.6325 µM
  relative viability: 0.349
NCI-H1975; first compound 2 µM
  relative viability: 0.366
NCI-H1975; first compound 6.325 µM
  relative viability: 0.375
NCI-H1975; first compound 20 µM
  relative viability: 0.19
NCI-H2170; first compound 0.2 µM
  relative viability: 0.554
NCI-H2170; first compound 0.6325 µM
  relative viability: 0.46
NCI-H2170; first compound 2 µM
  relative viability: 0.497
NCI-H2170; first compound 6.325 µM
  relative viability: 0.604
NCI-H2170; first compound 20 µM
  relative viability: 0.586
NCI-H23; first compound 0.2 µM
  relative viability: 0.692
NCI-H23; first compound 0.6325 µM
  relative viability: 0.799
NCI-H23; first compound 2 µM
  relative viability: 0.687
NCI-H23; first compound 6.325 µM
  relative viability: 0.721
NCI-H23; first compound 20 µM
  relative viability: 0.221
NCI-H2405; first compound 0.2 µM
  relative viability: 0.197
NCI-H2405; first compound 0.6325 µM
  relative viability: 0.199
NCI-H2405; first compound 6.325 µM
  relative viability: 0.169
NCI-H2405; first compound 20 µM
  relative viability: 0.0902
NCI-H3122; first compound 0.2 µM
  relative viability: 0.382
NCI-H3122; first compound 0.6325 µM
  relative viability: 0.806
NCI-H3122; first compound 2 µM
  relative viability: 0.439
NCI-H3122; first compound 6.325 µM
  relative viability: 0.433
NCI-H3122; first compound 20 µM
  relative viability: 0.856
NCI-H322M; first compound 0.2 µM
  relative viability: 0.265
NCI-H322M; first compound 0.6325 µM
  relative viability: 0.258
NCI-H322M; first compound 6.325 µM
  relative viability: 0.243
NCI-H322M; first compound 20 µM
  relative viability: 0.0311
NCI-H358; first compound 0.2 µM
  relative viability: 0.186
NCI-H358; first compound 2 µM
  relative viability: 0.174
NCI-H358; first compound 6.325 µM
  relative viability: 0.178
NCI-H358; first compound 20 µM
  relative viability: 0.0822
NCI-H520; first compound 0.2 µM
  relative viability: 0.203
NCI-H520; first compound 0.6325 µM
  relative viability: 0.204
NCI-H520; first compound 2 µM
  relative viability: 0.258
NCI-H520; first compound 6.325 µM
  relative viability: 0.176
NCI-H520; first compound 20 µM
  relative viability: 0.13
NCI-H727; first compound 0.2 µM
  relative viability: 0.273
NCI-H727; first compound 0.6325 µM
  relative viability: 0.346
NCI-H727; first compound 2 µM
  relative viability: 0.351
NCI-H727; first compound 6.325 µM
  relative viability: 0.225
NCI-H727; first compound 20 µM
  relative viability: 0.166
NCI-H838; first compound 0.2 µM
  relative viability: 0.31
NCI-H838; first compound 0.6325 µM
  relative viability: 0.279
NCI-H838; first compound 6.325 µM
  relative viability: 0.279
NCI-H838; first compound 20 µM
  relative viability: 0.456
SK-MES-1; first compound 0.2 µM
  relative viability: 0.303
SK-MES-1; first compound 0.6325 µM
  relative viability: 0.475
SK-MES-1; first compound 2 µM
  relative viability: 0.447
SK-MES-1; first compound 6.325 µM
  relative viability: 0.286
SK-MES-1; first compound 20 µM
  relative viability: 0.242
UMC-11; first compound 0.2 µM
  relative viability: 0.53
UMC-11; first compound 0.6325 µM
  relative viability: 0.466
UMC-11; first compound 2 µM
  relative viability: 0.504
UMC-11; first compound 6.325 µM
  relative viability: 0.464
UMC-11; first compound 20 µM
  relative viability: 0.444
